Data on one molecule can be found in paper PMC7870626, “Neurotoxicity and underlying cellular changes of 21 mitochondrial respiratory chain inhibitors” (Archives of Toxicology, 2021).

Each structure is given as a SMILES string. Entries after “also recorded” stand apart in the source; their conditions may differ.

Assay [1] concerns SH-SY5Y cells. The assay can be described thus: Mitochondrial membrane potential (rhodamine 123), KE2 assay. The format is cell-based, human. Conditions: Homo sapiens, SH-SY5Y, 24 h, read-out: pEC25 MMP (concentration where MMP was reduced by 25%). As for the experimental part:
Cells were plated at a cell density of 29,500 cells/cm^2 and handled as described above for the neurite SH-SY5Y degeneration. On d6 of differentiation, 50% of the medium was replaced by differentiation medium containing 2 µM Rhodamine 123 (ThermoFisher). After 45 min of preloading at 37 °C with 5% CO2 in darkness, the Rhodamine 123 solution was completely removed and cells were carefully washed once with 200 µl DMEM:F12. Subsequently, 50 µl differentiation medium per well were added followed by the addition of 50 µl/well of test compounds in medium. After 24 h of exposure to the test compounds, the nuclei were stained for 30 min with 20 µL of a solution containing 20 µM Hoechst 33342, and the images were then acquired with a 10 × objective lens using the ImageXpress® Micro (Molecular Devices) high content microplate imager. Nuclei were evaluated in the DAPI channel (excitation 377 ± 50 nm, emission 447 ± 60 nm), whereas Rhodamine 123 fluorescence was detected in the FITC channel (excitation 475 ± 34 nm, emission 536 ± 40 nm). Analysis of the Hoechst 33,342 and Rhodamine 123 fluorescence was performed using the MetaXpress® Software (Molecular Devices) with the Transfluor HT plug-in and the parameters nuclei (for Hoechst-33342) and integrated granule intensity (for Rhodamine 123). Mitochondrial membrane potential (MMP) was quantified as the total fluorescence intensity of Rhodamine 123 in relation to the number of Hoechst-stained nuclei.

For assay [2], the system named is LUHMES cells. Description: LUHMES 120 h exposure scenario, neurite effects. In kind it is cell-based, human. How it is done:
(§1) The NeuriTox test was performed as previously described (Delp et al. [2018b]; Krug et al. [2013a]; Stiegler et al. [2011]). Briefly, cells differentiated for 48 h were re-seeded into 96-well plates at a density of 100,000 cells/cm^2 in DM without cAMP and GDNF, and treated 1 h after seeding for 24 h. Subsequently, multiple endpoints were determined, e.g., neurite outgrowth (i.e., NeuriTox test), resazurin reduction, intracellular ATP content, gene expression levels from TempO-Seq analysis, and proteasomal activity. For the 120 h exposure scenario, LUHMES cells were differentiated for another 3 days after reseeding before they were treated on day 5 (d5) and d7 by a half medium exchange. Endpoints were determined on d10 of differentiation.
(§2) Image acquisition and analysis was performed as described previously (Krug et al. [2013a]; Schildknecht et al. [2013]; Stiegler et al. [2011]). In brief, cells were live-stained with 1 µg/ml Hoechst H-33342 and 1 µM calcein-AM and image acquisition was done by an automated high content imager (Cellomics, Waltham, MA, USA). Cell viability was determined as ratio of live cells (cell bodies being Calcein- and Hoechst-positive) relative to the total amount of cells (Hoechst-positive cell bodies). Neurite area was calculated by subtracting the somatic area (Hoechst-positive area plus surrounding) from the calcein-positive area.

Assay [3] has as its system SH-SY5Y cells. The format is cell-based, human. Conditions: 120 h exposure, up to 10 µM. As for the experimental part: The cells are able to form neurites and display several dopaminergic characteristics. […] Differentiation was initiated 24 h later (on day 0, d0) by exchange to 100 µl/well differentiation medium (DMEM:F12, supplemented with 1 µM all-trans retinoic acid (RA), 1 × N2 supplement, 2 mM L-glutamine, 100 µg/ml streptomycin, and 100 U/ml penicillin). All media and supplements were obtained from Gibco (ThermoFisher) except from RA (Sigma).
On d3, 100 µl of fresh differentiation medium were added to the wells. For the 120 h exposure, this medium contained twice the final treatment concentration. On d6, 100 µl from each well were removed, and the procedure was repeated and the cells were analyzed on d8. For the 24 h exposure, cells received an addition of 100 µl pure differentiation medium on d3 and were treated with compounds as described above on d6 for 24 h before analysis. […] The cells were incubated with the stain mixture for 20 min at 37 °C, 5% CO2. After incubation, 130 µL of differentiation medium were added to all the wells to stop further staining of the cells. Images were obtained using ImageXpress® Micro (Molecular Devices). […] The mean neurite length was calculated using the Neurite Outgrowth plug-in in the MetaXpress® Software. Outgrowths were defined as cytoplasmic prolongations with a maximum width of 2 µm (3 pixels). The minimum outgrowth size needed to be logged as significant was defined as 15 µm (23 pixels).

Assay [4] relates to LUHMES cells. Description: NeuriTox test: neurite area and viability, 24 h. The format is cell-based, human. Conditions: Homo sapiens. How it is done: as §1, §2
The subject of assay [5] is LUHMES cells. The assay can be described thus: Intracellular ATP content after NeuriTox exposure. The format is cell-based. Conditions: Homo sapiens; NeuriTox exposure scheme, 24 h; read-out: LUHMES 24 h EC25 ATP (converted). As for the experimental part: as §1
Plates from the NeuriTox test were further used after imaging for determination of alternative endpoints. Intracellular ATP was determined as described earlier (Delp et al. [2019]). In brief, CellTiterGlo 2.0 assay mix (Promega) containing luciferase was added after imaging, and luminescence was recorded. For the determination of resazurin reduction, a 10 × resazurin stock solution was added after imaging to the medium (final resazurin concentration 2 µg/ml) (Delp et al. [2018a]). After 60 min incubation, resazurin fluorescence was recorded (ex: 530 nm, em: 590 nm). Background-corrected data was used for further analysis.

A further assay deals with U2OS cells. Description: cells. The format is cell-based. The conditions noted are these: Homo sapiens, U2OS, 24 h, read-out: Cytotox EC25 U2OS. As for the experimental part:
A cell suspension of 100,000 cells/ml was prepared in assay medium, and white 384-well plates were filled with 30 µl/well cell suspension. Twenty-four hours after seeding, a dilution series of test compound, as well as positive and negative controls, were added to the cells. After 24 h exposure, the medium was removed, and 10 µl of Triton X-100 lysis buffer was added to each well. The luminescent signal was determined in a luminometer by injecting BDS Illuminate Mix and measuring the light emission. The Cytotox CALUX cell line constitutively expresses a high level of luciferase protein; the light emission is therefore proportional to the cell number of live cells, and its decrease can be used as measure of cytotoxicity. The light emission generated by cells exposed to vehicle control was set to 100%, and the luminescence of cells exposed to the positive control toxicant tributyltin acetate [100 µM] was set to 0%. The light output of the cells exposed to different concentrations of test compounds was scaled accordingly.

As for `Cc1nn(C)c(Oc2ccccc2)c1C=NOCc1ccc(C(=O)OC(C)(C)C)cc1` [Fenpyroximate], the EC25 in the assay on SH-SY5Y cells [1] was 0.794 µM; in the assay with LUHMES cells [4] (NeuriTox exposure scheme, 24 h, read-out: LUHMES 24 h EC25 NA (neurite area) (converted)), 15.8 µM; with LUHMES cells [4] (NeuriTox exposure scheme, 24 h, read-out: LUHMES 24 h EC25 V (viability) (converted)), 39.8 µM; in the assay with LUHMES cells [4] (NeuriTox test, neurite outgrowth impairment, LUHMES 24 h, read-out: EC25 KE4 (AO) Neurite toxicity (converted)), 15.8 µM; in the assay on LUHMES cells [5], 12.6 µM; in the assay with U2OS cells, more than 50.1 µM. For the same molecule, in the assay on LUHMES cells [2], the “Increase in sensitivity of neurite EC25, 120 h versus 24 h exposure” value is listed as “five-to-eightfold”. In the assay on SH-SY5Y cells [3], the “Neurite degeneration (in words)” value is given as “degeneration of neurites; also recorded: increased neurite degeneration”. Besides, in the assay on SH-SY5Y cells [3], the Reduction in viability is given as more than 25%.
